The results in this text go back to ChEMBL document CHEMBL1221220, “Transport and signaling via the amino acid binding site of the yeast Gap1 amino acid transceptor” (Nat Chem Biol, 2009).

Where a chain is given by its changes, count along the chain named. Active and inactive are the calls of the source. No cut-off for these calls is given here.

In test [1] the test system is T1, General amino-acid permease GAP1 (Saccharomyces cerevisiae), P19145 [R399C].
T1 sequence (whole entry): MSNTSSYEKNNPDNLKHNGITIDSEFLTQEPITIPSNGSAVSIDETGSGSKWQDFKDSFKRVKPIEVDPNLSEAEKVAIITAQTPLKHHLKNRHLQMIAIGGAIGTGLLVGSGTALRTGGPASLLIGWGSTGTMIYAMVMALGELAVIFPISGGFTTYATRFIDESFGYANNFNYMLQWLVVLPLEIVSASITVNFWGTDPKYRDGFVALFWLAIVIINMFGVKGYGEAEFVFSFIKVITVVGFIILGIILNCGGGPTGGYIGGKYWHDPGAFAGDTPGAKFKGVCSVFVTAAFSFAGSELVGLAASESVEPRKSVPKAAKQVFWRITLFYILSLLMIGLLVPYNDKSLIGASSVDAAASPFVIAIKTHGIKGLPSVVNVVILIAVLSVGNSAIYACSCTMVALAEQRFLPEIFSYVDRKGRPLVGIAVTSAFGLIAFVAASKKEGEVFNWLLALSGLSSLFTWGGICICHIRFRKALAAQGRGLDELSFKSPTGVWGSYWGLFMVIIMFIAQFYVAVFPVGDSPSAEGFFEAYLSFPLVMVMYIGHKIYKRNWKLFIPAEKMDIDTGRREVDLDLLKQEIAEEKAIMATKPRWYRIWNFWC
Put plainly: Induction of yeast Gap1 R399C mutant-mediated trehalose activation at 10 mM.

The subject of test [2] is General amino-acid permease GAP1 (Saccharomyces cerevisiae), P19145 [I394C]. Put plainly: Inhibition of yeast Gap1 I394C mutant-mediated amino acid uptake at 10 mM.
Test [3] has as its system General amino-acid permease GAP1 (Saccharomyces cerevisiae), P19145 [Y395C]. The experiment in a line: Inhibition of yeast Gap1 Y395C mutant-mediated trehalose activation at 10 mM.
The subject of test [4] is T2, General amino-acid permease GAP1 (Saccharomyces cerevisiae), P19145 [I384C].
T2 sequence (whole entry): T1 sequence (whole entry) with I384C, C399R
The experiment in a line: Induction of yeast Gap1 I384C mutant-mediated trehalose activation at 2 mM in presence of 10 mM MTSEA treated before compound addition.

Test [5] has as its system T3, General amino-acid permease GAP1 (Saccharomyces cerevisiae), P19145 [G390C].
T3 sequence (whole entry): T1 sequence (whole entry) with G390C, C399R
The experiment in a line: Induction of yeast Gap1 G390C mutant-mediated amino acid uptake at 2 mM in presence of 10 mM MTSEA treated before compound addition.

Test [6] deals with T4, General amino-acid permease GAP1 (Saccharomyces cerevisiae), P19145 [C397C].
T4 sequence (whole entry): T1 sequence (whole entry) with C399R
Put plainly: Induction of yeast Gap1 C397C mutant-mediated amino acid uptake at 2 mM in presence of 10 mM MTSEA treated before compound addition.

Chain of General amino-acid permease GAP1 (Saccharomyces cerevisiae), P19145 [I394C] (P19145 whole entry I394C): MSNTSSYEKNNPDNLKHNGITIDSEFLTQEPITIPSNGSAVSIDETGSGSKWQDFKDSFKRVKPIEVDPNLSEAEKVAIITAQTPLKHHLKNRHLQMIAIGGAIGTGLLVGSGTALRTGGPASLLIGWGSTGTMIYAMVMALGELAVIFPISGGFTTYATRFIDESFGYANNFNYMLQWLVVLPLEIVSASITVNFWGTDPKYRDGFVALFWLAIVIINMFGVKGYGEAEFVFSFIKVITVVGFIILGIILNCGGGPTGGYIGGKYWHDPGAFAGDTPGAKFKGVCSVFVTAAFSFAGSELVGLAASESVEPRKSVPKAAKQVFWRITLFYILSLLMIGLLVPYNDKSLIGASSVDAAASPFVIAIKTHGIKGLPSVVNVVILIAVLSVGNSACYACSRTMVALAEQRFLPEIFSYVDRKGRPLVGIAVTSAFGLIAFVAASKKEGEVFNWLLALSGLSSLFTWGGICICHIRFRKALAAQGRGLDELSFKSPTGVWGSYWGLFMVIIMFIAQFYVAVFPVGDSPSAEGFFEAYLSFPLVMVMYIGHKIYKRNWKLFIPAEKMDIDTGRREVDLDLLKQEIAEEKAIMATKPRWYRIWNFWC
Chain of General amino-acid permease GAP1 (Saccharomyces cerevisiae), P19145 [Y395C] (P19145 whole entry Y395C): as the sequence (P19145 whole entry I394C) above, with C394I, Y395C counted along it

As for `NC(=O)NCCC[C@H](N)C(=O)O`, the result in test [1] was inactive. In addition, the inhibition entry in test [2], in test [3] and in test [4] was “Active” throughout. The outcome in test [5] and in test [6] was Active.
